In patent US8748598B2, “Analogs of 3-O-acetyl-11-keto-beta-boswellic acid” (Laila Nutraceuticals, priority 2004, dated 2014):
In brackets after ≈: the same amount, converted by molar mass.

Assays:
potato 5-lipoxygenase = experiment: 5-Lipoxygenase enzyme inhibitory activity; format: biochemical
Protocol: 5-Lipoxygenase enzyme inhibitory activity was measured using the method of Schewe et al. (Adv Enzymol, Vol 58, 191-272, 1986), modified by Reddanna et. al., (Methods of Enzymology, Vol 187, 268-277, 1990). The assay mixture contained 80 μM linoleic acid and sufficient amount of potato 5-lipoxygenase in 50 mM phosphate buffer (pH 6.3). The reaction was initiated by the addition of enzyme buffer mix to linoleic acid and the enzyme activity was monitored as the increase in absorbance at 234 nm. The reaction was monitored for 120 sec and the inhibitory potential of the test substances (29, 31, 33, 34, 35, 36, 39, 40, 43, 44, 46, 47, 48, 49, 50, 54, 57, 59, 62 & 63) was measured by incubating various concentrations of test substances two minutes before the addition of linoleic acid. All assays were performed three times. Percentage inhibition was calculated by comparing the slope of the curve obtained for test substances with that of the control.

MCF-7 = experiment: MTT cell proliferation assay, MCF-7; format: cell-based, human; conditions: for Percentage Inhibition of cell proliferation MCF-7 / inhibition at 10 µg/mL: 10 μg/ml; for inhibition at 10 µg/mL: read-out: Percentage Inhibition of cell proliferation MCF-7
Protocol: (§1) MTT [3-(4,5-dimethylthiazol-2-yl)-2,5-diphenyltetrazolium bromide] incorporation based cell proliferation assay was performed as described previously (Reference). The cytotoxic efficacy of some analogs was evaluated in different cell lines by MTT cell proliferation assay kit (Roche Applied Sciences, Germany). The assay was carried out according to the instruction provided by the vendor. Briefly, in brief, equal numbers of cells was plated in 96-well flat-bottomed plates in 100 μl of medium and were exposed to different analogs selected from 1 to 63 at various concentrations up to 10 μg/ml for a period of three days. Vehicle control culture wells received only a maximum of 0.5% DMSO. Thereafter, 0.5 mg/ml of MTT reagent was added to each well and the microplate was incubated further for 4 h at 37° C. in presence of 5% CO2. Finally, the cells were solubilized by adding solubilizing solution and allowed to incubate at 37° C. overnight. After complete solubilization of the formazan crystals the absorbance was read at 540 nm in a microplate reader (BioRad, USA). The results (mean OD±SD) obtained from quadruplicate wells were used in calculation to determine the inhibition of cell proliferation (50% of inhibitory concentration, IC50) of the test compounds.
(§2) The cytotoxic properties of some analogs were evaluated by MTT incorporation assay. The methodology of the assay procedure was the same as mentioned in example 41.

A549 = experiment: MTT cell proliferation assay, A549; format: cell-based, human; conditions: Table 2
Protocol: as §1

B16 = experiment: MTT cell proliferation assay, B16; format: cell-based, mouse; conditions: Table 2; three days
Protocol: as §1

MDA-MB-231 = experiment: MTT cell proliferation assay, MDA-MB-231; format: cell-based, human; conditions: for inhibition at 10 µg/mL: read-out: Percentage Inhibition of cell proliferation MDA-MB-231
Protocol: as §1, §2

A375 = experiment: MTT cell proliferation assay, A375; format: cell-based, human; conditions: Table 2; three days
Protocol: as §1

[1] = test system: B16 F0 melanoma xenograft; experiment: B16 F0 melanoma xenograft model; format: in vivo, C57B6J mice; conditions: 75 mg/kg daily intra-peritoneal, twelve days
Protocol: In vivo efficacy of LI-51255 against melanoma growth was evaluated in B16 F0 melanoma xenograft model of C57B6J mice. C57B6J mice of 6 weeks age (body weight 18-22 g) were purchased from National Institute of Nutrition (NIN), Hyderabad (India). Animals study protocols were approved by Institutional Ethics Committee (IAEC). All the studies were performed in compliance with the Committee for the Purpose of Control and Supervision of Experiments on Animals (CPCSEA) guidelines and OECD guidelines. Animals were allowed free access to standard feed and provided charcoal filtered and UV exposed water ad libitum. The animals were maintained at a controlled temperature (24-26° C.), humidity (45-70%), and 12 h/12 h of light/dark cycle.
To induce the melanoma tumor formation, sub-confluent B16F0 cells were harvested by brief trypsinization and 1×10^6 cells were injected subcutaneously in 0.2 mL phosphate-buffered saline. Drug treatment was started after development of palpable tumors (3-5 days after implantation of the cells). Drugs were prepared in phosphate-buffered saline (10% DMSO, v/v) and either 75 mg/kg of DTIC or different doses of LI-51255 (10 or 20 mg/kg) was administered daily through intra-peritoneal route. Vehicle treated control animals received only 10% DMSO in phosphate buffered saline. After twelve days of treatment, the animals were sacrificed by CO2 inhalation and tumors were excised and weighed.

[2] = Homo sapiens, MDA-MB-231, Table 4, 10 μg/ml

% inhibition at 10 μg/ml (potato 5-lipoxygenase) [%] | % inhibition at 25 μg/ml (potato 5-lipoxygenase) [%] | Structure (SMILES) | inhibition at 10 µg/mL (MDA-MB-231; [2]) [%] | inhibition at 10 µg/mL (MCF-7; Homo sapiens, MCF7, Table 4) [%] | further results
24.66 | 52.98 | CC(=O)O[C@@H]1CC[C@@]2(C)C(CC[C@]3(C)C2C(=O)C=C2C4[C@@H](C)[C@H](C)CC[C@]4(C)CC[C@]23C)[C@@]1(C)C(=O)NCCCCCCN (some centres unmarked) [Analog 33] | – | – | Inhibition of cell proliferation MCF-7, % at 10 ug/ml (MCF-7; Table 2, 10 ug/ml): 36% at 10; Percentage Inhibition of cell proliferation MCF-7 (MCF-7; Table 4): 36% at 10 μg/ml; Inhibition of cell proliferation A549, % at 10 ug/ml (A549; 10 ug/ml): 24% at 10; Inhibition of cell proliferation B16 (IC50) (B16): 9.1 µg/mL
16.31 | 29.40 | CC(=O)O[C@@H]1CC[C@@]2(C)C(CC[C@]3(C)C2C(=O)C=C2C4[C@@H](C)[C@H](C)CC[C@]4(C)CC[C@]23C)[C@@]1(C)C(=O)NCCCCN (some centres unmarked) [Analog 34] | – | – | Inhibition of cell proliferation MDA-MB-231 (IC50) (MDA-MB-231; Table 2, three days): 6.38 µg/mL; IC50 values MDA-MB-231 (MDA-MB-231; Table 4): IC50 at 6.38 μg/ml; Inhibition of cell proliferation MCF-7 (IC50) (MCF-7; Table 2, three days): 13.7 µg/mL; IC50 values MCF-7 (MCF-7; Table 4): IC50 at 13.7 μg/ml; Inhibition of cell proliferation A549 (IC50) (A549; three days): 10.5 µg/mL; Inhibition of cell proliferation A375 (IC50) (A375): 4.12 µg/mL; Inhibition of cell proliferation B16 (IC50) (B16): 3.84 µg/mL
18.40 | 40.47 | CC(=O)O[C@@H]1CC[C@@]2(C)C(CC[C@]3(C)C2C(=O)C=C2C4[C@@H](C)[C@H](C)CC[C@]4(C)CC[C@]23C)[C@@]1(C)C(=O)n1ccnc1 (some centres unmarked) [Analog 40] | 31 | 2.7 | –
14.57 | 30.90 | CNC(=O)[C@]1(C)C2CC[C@]3(C)C(C(=O)C=C4C5[C@@H](C)[C@H](C)CC[C@]5(C)CC[C@]43C)[C@@]2(C)CC[C@H]1OC(C)=O (some centres unmarked) [Analog 43] | 47.8 | 12.6 | –
19.88 | 30.02 | CC(=O)O[C@@H]1CC[C@@]2(C)C(CC[C@]3(C)C2C(=O)C=C2C4[C@@H](C)[C@H](C)CC[C@]4(C)CC[C@]23C)[C@@]1(C)C(=O)Nc1ccccc1Br (some centres unmarked) [Analog 44] | – | – | IC50 (MDA-MB-231; Homo sapiens, MDA-MB-231, Table 4): 28.6 µg/mL (≈ 43 µM); IC50 (MCF-7; Homo sapiens, MCF7, Table 4): 24.1 µg/mL (≈ 36.1 µM)
19.01 | 30.56 | CC(=O)O[C@@H]1CC[C@@]2(C)C(CC[C@]3(C)C2C(=O)C=C2C4[C@@H](C)[C@H](C)CC[C@]4(C)CC[C@]23C)[C@@]1(C)C(=O)Nc1ccc(O)cc1 (some centres unmarked) [Analog 46] | – | 39 | –
35.94 | 54.10 | CC(=O)O[C@@H]1CC[C@@]2(C)C(CC[C@]3(C)C2C(=O)C=C2C4[C@@H](C)[C@H](C)CC[C@]4(C)CC[C@]23C)[C@@]1(C)C(=O)NNc1ccccc1 (some centres unmarked) [Analog 47] | 39 | 10 | –
31.55 | 47.02 | CC(=O)O[C@@H]1CC[C@@]2(C)C(CC[C@]3(C)C2C(=O)C=C2C4[C@@H](C)[C@H](C)CC[C@]4(C)CC[C@]23C)[C@@]1(C)C(=O)NCCN(CCO)CCO (some centres unmarked) [Analog 49] | – | – | Percentage Inhibition of cell proliferation MDA-MB-231 (MDA-MB-231; Table 4, 10 μg/ml): 21.4 at 10 μg/ml %; Percentage Inhibition of cell proliferation MCF-7 (MCF-7; Table 4): 40.9% at 10 ug/ml
– | – | CN(C)/N=N/c1[nH]cnc1C(N)=O [DTIC, Dacarbazine, reference compound] | – | – | % reduction of tumor burden (w.r.t control) [1]: 33.613%; Average weight of tumor [1]: 4.175 gm; % reduction of tumor burden (w.r.t control) ([1]; listed as Dacarbazine): 33.6%
